Data: patent US9072751B2, “Na/K-ATPase ligand” (priority 2006, dated 2015)
Where two headings read alike, the source gives them in different places.

Tests used:
[1] = tested on: isolated cardiac fibroblasts; type: cell-based, rat; conditions: 24 hours
Protocol: (§1) Preparation of adult rat cardiac fibroblasts was performed as described previously by Brilla et al. with modifications.
Western blot analysis was performed on protein isolated from tissue homogenates, cell culture whole cell lysates, or nuclear extracts as described previously.
(§2) Representative Western blot for procollagen and quantitative densitometric data obtained in response to different doses of (a) MBG (all N=10), (b) MBG 10 nM contrasted with different doses of ouabain (0.1 to 100 nM) and digoxin (10 nM; all N=8). c, ouabain sensitive Rb uptake as a function of MBG and ouabain concentration (N=4 at each concentration for both MBG and ouabain; data expressed as fraction of control). d, relative proline incorporation in the supernatant and matrix, both will and without collagenase digestion (total). Each group (controls and different doses of MBG) contains N=7 replicants. The difference between the total and after collagenase digestion is reported as collagen. The matrix is the sample that was obtained after removing supernatant and scraping the culture dish. e, mRNA for collagen 1 in MBG-treated (10 nM; N=8) or control (N=8) fibroblasts. f, procollagen stability after cycloheximide treatment. Time 0 is 1 hour after incubation with cycloheximide (20 μg/mL). […] Least-square regression line fit to control (CTL) and MBG data. Bars on quantitative graphs represent the mean.+−.SEM. *P<0.05 and **P<0.01 vs control.
(§3) The PP2, herbimycin AG1478, and N-acetyl cysteine were administered from 2 hours before the addition of MBG and continued throughout the 24 hours of MBG incubation (total of 26 hours). Each bar represents the mean.+−.SEM of n=8 experiments. b, effects of PP2 (1 μmol/L) and N-acetyle cysteine (2.5 mmol/L) on MBG (10 nM)-stimulated proline incorporation into collagen. Again, the PP2 an N-acetyl cysteine were added 2 hours before exposure to MBG. Each bar represents the mean.+−.SEM of N=5 experiments. c, effects of MBG 10 nM on procollagen content in SYF and SYF+ cells. Representative Western blots are shown above quantitative data. SYF blots loaded with 15 μg of protein and SYF+blots loaded with 10 μg of protein. Each bar represents the mean.+−SEM of N-6 determinations In each group. **P<01.10 vs. control.
(§4) The effect of 24 hours of MBG (1 and 10 nM) on TGF-β, Smad 2/3, Smad 4, and pSmad 2/3 expression determined by Western blot. b and c, effects of 24 hours of MBG (10 nM), TGFβ(5 ng/mL), and the TGF-β receptor antagonist SB431542 ([…] on procollagen-1 expression (Western blot) and radiolabeled proline incorporation, respectively also were carried out. SB431542 was added 2 hours before exposure to either TGFβ or MBG (total of 26-hour exposure). Each bar represents the mean.+−.SEM of 6 to 8 determinations. *P<0.05, **P<0.01 vs. control.

SYF cells = experiment: Procollagen expression in SYF cells; type: cell-based; conditions: MBG 10 nM
From the text: To examine whether cardiotronic steroids induced collagen synthesis by signaling through the Na/K-ATPase, we performed the following studies. First, we used pharmacological antagonism at several steps in the Na/K-ATPase cascade. Specifically, we used pharmacological antagonism of Src activation with PP2, nonspecific tyrosine kinase inhibition with herbimycin, inhibition of EGFR transactivation with AG1478, and nonspecific antioxidant administration with N-acetyle cysteine. […] Next we performed studies in the SYF and SYF+ cells (details available in the online supplement).
as §3, with “The effects of PP2 (1 μmol/L), herbimycin (1 μmol/L), AG1478 (250 nM), and N-acetyl cysteine (2.5 mmol/L) on MBG (10 nM) stimulation of procollagen expression also were found. The” for “The”, “SYF blots loaded with 15 μg of protein and SYF+blots loaded with 10 μg of protein. Each bar represents the mean.+−SEM of N-6 determinations In each group. **P<01.10 vs. control.” left out

fibroblast cell line = experiment: Procollagen expression in immortalized fibroblast cell line (Western blot); type: cell-based
From the text: We next examined whether skin fibroblasts lines had similar response. This was done with dermal fibroblasts kindly provided by Dr. Bashar Kahaleh. […] The magnitude of this response is illustrated by comparison to maximal doses of TGFβ, the “classic” stimulus for fibrosis (see below). In addition, we observed that an immortalized fibroblast line responded similarly to MBG, ouabain and digoxin.
Response of dermal fibroblasts to MBG as compared with TGF beta. Note that increase in collagen expression in MBG is approximately 10 fold with 5 or 10 nM MBG.

[2] = tested on: isolated cardiac fibroblasts; experiment: Procollagen stability after cycloheximide in cardiac fibroblasts; type: cell-based, rat; conditions: 10 nM
Protocol: (§5) To further examine the molecular basis of this cardiac fibrosis, isolated cardiac fibroblasts were subjected to increase doses of MBG (10^−10, 10^−9, and 10^−8 M). […] Using collagenase digestion, we observed that the vast majority of the proline incorporation was into collagen. Using standardized RT-PCR, we observed a doubling of mRNA for collagen-1 at 24 hours in response to 10 nM of MBG.
Representative Western blot for procollagen and quantitative densitometric data obtained in response to different doses of (a) MBG (all N=10), (b) MBG 10 nM contrasted with different doses of ouabain (0.1 to 100 nM) and digoxin (10 nM; all N=8). c, ouabain sensitive Rb uptake as a function of MBG and ouabain concentration (N=4 at each concentration for both MBG and ouabain; data expressed as fraction of control). d, relative proline incorporation in the supernatant and matrix, both will and without collagenase digestion (total). Each group (controls and different doses of MBG) contains N=7 replicants. The difference between the total and after collagenase digestion is reported as collagen. […] Bars on quantitative graphs represent the mean.+−.SEM. *P<0.05 and **P<0.01 vs control.

[3] = tested on: isolated cardiac fibroblasts; experiment: Radiolabeled proline incorporation into collagen (collagen synthesis) in cardiac fibroblasts; type: cell-based, rat; conditions: 10^−9 and 10^−8 M
Protocol: as §1
Collagen synthesis rates were determined by the method of Nishida et al. with modification.
as §5, §2
as §3, with “The effects of PP2 (1 μmol/L), herbimycin (1 μmol/L), AG1478 (250 nM), and N-acetyl cysteine (2.5 mmol/L) on MBG (10 nM) stimulation of procollagen expression also were found. The” for “The”
as §4

For C[C@]12CC[C@H](O)C[C@@]1(O)CC[C@@H]1[C@@H]2CC[C@]2(C)[C@@H](c3ccc(=O)oc3)C[C@H]3O[C@]132 [MBG, marinobufagenin], the “Increase of procollagen content (Western blot)” value ([1]; 10^−8 M) was “about 2 fold”, the “Increase of procollagen content (Western blot)” value ([1]; 10^−9 M) was “about 2 fold” and the “Response of procollagen expression in SYF cells” value (SYF cells) was “essentially no response”. For the same molecule, the “Effect on fibroblast cell line expression of procollagen” value (fibroblast cell line) was “Comparable effect”, the “Procollagen stability (procollagen-1 expression after cycloheximide)” value [2] was “did not detect any increases” and the “Proline incorporation into total protein, matrix and supernatant” value [3] was “significant increases”.
